Data reported in patent US9340819B2, “Method for detecting the presence of carbapenemase-producing bacteria in a sample” (priority 2011, dated 2016).
In brackets after ≈: the same amount, converted by molar mass.

Experiments:
[1] = system: S. marcescens; assay: MIC of carbapenem by Etest (Example 2); type: cell-based, Serratia marcescens
Procedure: (§1) All strains had previously been characterized for their β-lactamase content at the molecular level. Minimum inhibitory concentration of carbapenem were determined using the Etest® (AB bioMérieux, Solna, Sweden) and results were recorded according to US guidelines (CLSI), as updated in 2011.

[2] = system: K. pneumoniae; assay: MIC of carbapenem by Etest (Example 2); type: cell-based, Klebsiella pneumoniae
Procedure: as §1

[3] = system: P. rettgeri; assay: MIC by Etest on Mueller-Hinton agar (Example 1); type: cell-based, Proteus rettgeri; settings: Providencia rettgeri; P. rettgeri RAP (9); OXA-181 + OXA-1
Procedure: (§2) Prior to performing the method of the invention, susceptibility testings were performed by determining Minimum Inhibitory Concentration (MIC) values by the Etest® (AB bioMérieux; Solna, Sweden) on Mueller-Hinton agar plates at 37° C. and results of susceptibility testing were recorded according to the Clinical and Laboratory Standards Institute (CLSI) guidelines as modified in June 2010 (18). The breakpoints for imipenem are S≦1 μg/ml (susceptibility) and R≧4 μg/ml (resistant). As for those for ertapenem, they are S≦0.25 μg/ml and R≧1 μg/ml (see Tables 1 and 2).

[4] = system: M. morganii; assay: MIC of carbapenem by Etest (Example 2); type: cell-based, Morganella morganii; settings: Plasmid mediated AmpC or chromosomal AmpC + decreased membrane permeability; M. morganii Overexpressed cephalosporinase, n=2
Procedure: as §1

[5] = system: P. rettgeri; assay: MIC of carbapenem by Etest (Example 2); type: cell-based, Proteus rettgeri
Procedure: as §1

[6] = system: C. freundii; assay: MIC of carbapenem by Etest (Example 2); type: cell-based, Citrobacter freundii
Procedure: as §1

[7] = system: K. pneumoniae; assay: MIC by Etest on Mueller-Hinton agar (Example 1); type: cell-based; settings: Klebsiella pneumoniae
Procedure: as §2

[8] = system: P. mirabilis; assay: MIC by Etest on Mueller-Hinton agar (Example 1); type: cell-based; settings: Proteus mirabilis, plasmid mediated cephalosporinase ACC-1
Procedure: as §2

[9] = system: P. stuartii; assay: MIC by Etest on Mueller-Hinton agar (Example 1); type: cell-based; settings: Providencia stuartii, NDM-1 + OXA-1 + CMY-6
Procedure: as §2

[10] = system: C. freundii; assay: MIC by Etest on Mueller-Hinton agar (Example 1); type: cell-based; settings: Citrobacter freundii; C. freundii STE (13); NDM-1 + OXA-1 + OXA-9 + OXA-10 + CTX-M-15 + TEM-1
Procedure: as §2

[11] = system: E. cloacae; assay: MIC by Etest on Mueller-Hinton agar (Example 1); type: cell-based; settings: Enterobacter cloacae
Procedure: as §2

[12] = system: Salmonella spp.; assay: MIC of carbapenem by Etest (Example 2); type: cell-based; settings: Salmonella spp. KPC-2, n=1
Procedure: as §1

[13] = system: E. sakazaki; assay: MIC of carbapenem by Etest (Example 2); type: cell-based; settings: ESBL + decreased membrane permeability; E. sakazaki CTX-M-15, n=1
Procedure: as §1

[14] = system: K. ozonae; assay: MIC of carbapenem by Etest (Example 2); type: cell-based; settings: K. ozonae KPC-3, n=1
Procedure: as §1

[15] = system: E. asburiae; assay: MIC of carbapenem by Etest (Example 2); type: cell-based, Enterobacter asburiae; settings: E. asburiae IMI-2, n=1
Procedure: as §1

[16] = system: E. coli; assay: MIC of carbapenem by Etest (Example 2); type: cell-based, Escherichia coli
Procedure: as §1

[17] = system: E. aerogenes; assay: MIC of carbapenem by Etest (Example 2); type: cell-based, Enterobacter aerogenes
Procedure: as §1

[18] = system: P. mirabilis; assay: MIC of carbapenem by Etest (Example 2); type: cell-based, Proteus mirabilis; settings: Plasmid mediated AmpC or chromosomal AmpC + decreased membrane permeability; P. mirabilis ACC-1, n=1
Procedure: as §1

[19] = system: P. stuartii; assay: MIC of carbapenem by Etest (Example 2); type: cell-based, Providencia stuartii; settings: P. stuartii NDM-1, n=1
Procedure: as §1

What does the source list for `C[C@@H](O)[C@H]1C(=O)N2C(C(=O)O)=C(SCCN=CN)C[C@H]12` [IMP, imipenem]?
MICs range ([1]; S. marcescens IMP-11, n=1): 8 mg/L; MICs range ([1]; S. marcescens KPC-2, n=2): >32 mg/L; MICs range ([1]; S. marcescens SME-1, n=1): 32 mg/L; MICs range ([1]; S. marcescens SME-2, n=1): 32 mg/L; MICs range ([1]; S. marcescens VIM-2, n=1): >32 mg/L; MICs range ([2]; ESBL + decreased membrane permeability, K. pneumoniae CTX-M-15, n=8): 0.25 to 8 mg/L; MICs range ([2]; ESBL + decreased membrane permeability, K. pneumoniae SHV-2a, n=1): 0.25 mg/L; MICs range ([2]; ESBL + decreased membrane permeability, K. pneumoniae SHV-28, n=1): 1 mg/L; MICs range ([2]; ESBLs, K. pneumoniae CTX-M-3, n=1): 0.12 mg/L; MICs range ([2]; ESBLs, K. pneumoniae CTX-M-14, n=1): 0.12 mg/L; MICs range ([2]; ESBLs, K. pneumoniae CTX-M-15, n=3): 0.12 mg/L; MICs range ([2]; K. pneumoniae IMP-1, n=5): 0.5 to 8 mg/L; MICs range ([2]; K. pneumoniae IMP-8, n=2): 0.5 to 1 mg/L; MICs range ([2]; K. pneumoniae KPC-3, n=3): 0.5 to 8 mg/L; MICs range ([2]; K. pneumoniae NDM-4, n=1): >32 mg/L; MICs range ([2]; K. pneumoniae OXA-181, n=2): 0.5 to 1 mg/L; MICs range ([2]; K. pneumoniae VIM-19, n=1): 8 mg/L; MICs range ([2]; Plasmid mediated AmpC or chromosomal AmpC + decreased membrane permeability, K. pneumoniae DHA-1, n=1): >32 mg/L; MICs range ([2]; Plasmid mediated AmpC or chromosomal AmpC + decreased membrane permeability, K. pneumoniae DHA-2, n=1): 0.12 mg/L; MIC [3]: 1 µg/mL; MICs range [4]: 1.5 to 2^ mg/L; MICs range ([5]; P. rettgeri NDM-1, n=1): 3 mg/L; MICs range ([5]; P. rettgeri OXA-181, n=1): 8 mg/L; MICs range ([6]; C. freundii NDM-1, n=1): >32 mg/L; MICs range ([6]; ESBL + decreased membrane permeability, C. freundii TEM-3, n=1): 1 mg/L; MIC ([7]; CIP53153, K. pneumoniae CIP53153 (30), wild-type): 0.19 µg/mL (≈ 0.635 µM); MIC ([7]; K. pneumoniae 1 OMA (11), NDM-1 + CTX-M-15 + OXA-1 + OXA-9): > 32 µg/mL; MIC ([7]; K. pneumoniae 2 OMA, NDM-1 + OXA-1): > 32 µg/mL; MIC ([7]; K. pneumoniae 7 AFR, NDM-1 + OXA-1 + CTX-M-15 + CMY-6 + TEM-1): > 32 µg/mL; MIC ([7]; K. pneumoniae 6299 (19), ESBL OXA-163): 0.19 µg/mL (≈ 0.635 µM); MIC ([7]; K. pneumoniae 6759 GEN, NDM-1 + CTX-M-15 + OXA-1 + OXA-9 + OXA-10 + CMY16): 6 µg/mL; MIC ([7]; K. pneumoniae (16), ESBL CTX-M-15): 0.19 µg/mL (≈ 0.635 µM); MIC ([7]; K. pneumoniae BEL, OXA-48): 1 µg/mL (≈ 3.34 µM); MIC ([7]; K. pneumoniae BER (28), porin deficiency associated with ESBL, TEM): 0.5 µg/mL (≈ 1.67 µM); MIC ([7]; K. pneumoniae BIC (4), OXA-48): 0.5 µg/mL (≈ 1.67 µM); MIC ([7]; K. pneumoniae CHA (5), OXA-48 + TEM-1): 0.5 µg/mL; MIC ([7]; K. pneumoniae COO (27), porin deficiency associated with ESBL, CTX-M-15 + SHV-28): 0.5 µg/mL; MIC ([7]; K. pneumoniae DIN, NDM-1): 8 µg/mL (≈ 26.7 µM); MIC ([7]; K. pneumoniae EGY, OXA-48 + CTX-M-15): 2 µg/mL; MIC ([7]; K. pneumoniae H1516-6 COL (3), KPC-2 + TEM-1 + CTXM-15): 2 µg/mL; MIC ([7]; K. pneumoniae HOL, OXA-181 + CTX-M-15): 0.5 µg/mL; MIC ([7]; K. pneumoniae IND, NDM-1 + OXA-1 + CTX-M-15): 6 µg/mL; MIC ([7]; K. pneumoniae MAD (15), IMP-13): 0.5 µg/mL (≈ 1.67 µM); MIC ([7]; K. pneumoniae MAD, VIM-1 + CTX-M-3): > 32 µg/mL; MIC ([7]; K. pneumoniae OMA (8), OXA-181 + CTXM-15 + OXA-1): 0.5 µg/mL; MIC ([7]; K. pneumoniae RAM, OXA-48): 1 µg/mL (≈ 3.34 µM); MIC ([7]; K. pneumoniae SAB, NDM-1): 2 µg/mL (≈ 6.68 µM); MIC ([7]; K. pneumoniae UK (10), NDM-1 + CTX-M-15 + CMY-4 + OXA-1): 8 µg/mL; MIC [8]: 0.19 µg/mL (≈ 0.635 µM); MIC [9]: > 32 µg/mL; MIC [10]: > 32 µg/mL; MIC ([11]; E. cloacae 2185, ESBL OXA-163): 0.19 µg/mL (≈ 0.635 µM); MIC ([11]; E. cloacae (1), KPC-2): 4 µg/mL (≈ 13.4 µM); MIC ([11]; E. cloacae (17), ESBL CTX-M-15): 0.19 µg/mL (≈ 0.635 µM); MIC ([11]; E. cloacae ARF (25), overexpression of chromosomal cephalosporinase AmpC): 0.38 µg/mL (≈ 1.27 µM); MIC ([11]; E. cloacae BLA, overexpression of chromosomal cephalosporinase AmpC): 0.38 µg/mL (≈ 1.27 µM); MIC ([11]; E. cloacae CON (26), overexpression of chromosomal cephalosporinase AmpC): 0.5 µg/mL (≈ 1.67 µM); MIC ([11]; E. cloacae IR38, NDM-1 + CTX-M-15): > 32 µg/mL; MIC ([11]; E. cloacae TUR (6), OXA-48 + SHV-5): 0.5 µg/mL; MIC ([11]; E. cloacae, ESBL VEB-1): 0.19 µg/mL (≈ 0.635 µM); MICs range [12]: 4 mg/L; MICs range [13]: 0.25 mg/L; MICs range [14]: >32 mg/L; MICs range [15]: >32 mg/L; MICs range ([16]; E. coli IMP-1, n=2): 0.5 mg/L; MICs range ([16]; E. coli IMP-8, n=1): 6 mg/L; MICs range ([16]; E. coli KPC-2, n=5): 0.5 to 4 mg/L; MICs range ([16]; E. coli NDM-1, n=7): 1 to 16 mg/L; MICs range ([16]; E. coli OXA-48, n=6): 0.38 to 3 mg/L; MICs range ([16]; E. coli VIM-1, n=2): 1.5 to 3 mg/L; MICs range ([16]; E. coli VIM-2, n=2): 2 to 4 mg/L; MICs range ([16]; E. coli VIM-19, n=1): 8 mg/L; MICs range ([16]; ESBLs, E. coli CTX-M-1, n=1): 0.12 mg/L; MICs range ([16]; ESBLs, E. coli CTX-M-3, n=1): 0.12 mg/L; MICs range ([16]; ESBLs, E. coli CTX-M-14, n=2): 0.12 mg/L; MICs range ([16]; ESBLs, E. coli CTX-M-15, n=2): 0.12 mg/L; MICs range ([16]; ESBLs, E. coli VEB-1, n=1): 0.12 to 0.25 mg/L; MICs range ([16]; Plasmid mediated AmpC or chromosomal AmpC + decreased membrane permeability, E. coli ACC-1, n=1): 0.12 mg/L; MICs range ([16]; Plasmid mediated AmpC or chromosomal AmpC + decreased membrane permeability, E. coli CMY-2, n=1): 0.12 mg/L; MICs range ([16]; Plasmid mediated AmpC or chromosomal AmpC + decreased membrane permeability, E. coli CMY-10, n=1): 0.12 mg/L; MICs range ([16]; Plasmid mediated AmpC or chromosomal AmpC + decreased membrane permeability, E. coli DHA-1, n=1): 0.12 mg/L; MICs range ([16]; Plasmid mediated AmpC or chromosomal AmpC + decreased membrane permeability, E. coli Extended spectrum cephalosporinase, n=1): 0.12 mg/L; MICs range ([16]; Plasmid mediated AmpC or chromosomal AmpC + decreased membrane permeability, E. coli Overexpressed cephalosporinase, n=1): 16 mg/L; MICs range ([17]; E. aerogenes KPC-2, n=1): 8 mg/L; MICs range ([17]; Plasmid mediated AmpC or chromosomal AmpC + decreased membrane permeability, E. aerogenes Overexpressed cephalosporinase, n=1): 1 mg/L; MICs range [18]: 0.25 mg/L; MICs range [19]: 12 mg/L
